Experimental data: patent US10221152B2 (priority 2013, dated 2019)
Counter-ions that a name gives are not always drawn.

How the values were obtained:
[1] = tested on: H1N1 T.R. (Tamiflu-resistant variant of H1N1 viral strain); assay type: cell-based, Influenza A virus
[2] = tested on: Tamiflu-resistant H1N1 viral strain rWSN^H274Y; assay type: cell-based, Influenza A virus

Structure (SMILES)	Minimal Inhibitory Concentration (MIC), H1N1 T.R. [1] [µg/mL]	concentration required to inhibit rWSN^H274Y (immunofluorescence staining) [2] [µM]
COc1c(C)c2c(c(O)c1C/C=C(\C)CCC(=O)OCCN1CCOCC1)C(=O)OC2 [MPM, 2-morpholinoethyl(E)-6-(1,3-dihydro-4-hydroxy-6-methoxy-7-methyl-3-oxo-5-isobenzofuranyl)-4-methyl-4-hexenoate]	0.39	–
COc1c(C)c2c(c(O)c1C/C=C(\C)CCC(=O)OCCN1CCOCC1)C(=O)OC2 [MPM-N, mycophenolate mofetil hydrochloride]	–	5
NC(=O)c1ncn([C@@H]2O[C@H](CO)[C@@H](O)[C@H]2O)n1 [Ribavirin, reference compound]	–	100
